In ChEMBL document CHEMBL1201862, “PubChem BioAssay data set” (2004):
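Each compound was tested at five concentrations against cells in 96-well plates for 48 hours. GI50 = concentration required for 50% inhibition of growth.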 Activity calls are given as the source filed them. Cut-off read from the data, not from the text of the source: active = GI50 up to about 1.1 µM and inactive = higher.

Key:
Experiment in all cases: inhibition of tumour cell growth, NCI panel, 48 h
KM-20L2 = test system: KM-20L2
DMS-114 = test system: DMS-114
DLD-1 = test system: DLD-1
SNB-78 = test system: SNB-78
DMS-273 = test system: DMS-273
HOP-18 = test system: HOP-18
RXF 631 = test system: RXF 631
XF498 = test system: XF498
M19-MEL = test system: M19-MEL

Compound	GI50 (KM-20L2)	GI50 (DMS-114)	GI50 (DLD-1)	GI50 (SNB-78)	GI50 (DMS-273)	GI50 (HOP-18)	GI50 (RXF 631)	GI50 (XF498)	GI50 (M19-MEL)
Brc1ccc(-c2nnc(-c3nn(-c4ccccc4)c4nc5ccccc5nc34)o2)cc1	> 100 µM (inactive)	26.7 µM (inactive)	> 100 µM (inactive)	> 100 µM (inactive)	81.3 µM (inactive)	> 100 µM (inactive)	> 100 µM (inactive)		
CSc1nc(C)cc(=O)n1C1OC(COC(C)=O)C(OC(C)=O)C(OC(C)=O)C1OC(C)=O (centres undefined)	> 100 µM (inactive)	> 100 µM (inactive)	> 100 µM (inactive)		> 100 µM (inactive)			> 100 µM (inactive)	> 100 µM (inactive)
COc1cc2c(cc1O)CC13CCC(=O)N1CCc1cc(OC)c(O)c-2c13 (centres undefined)	> 68.1 µM (inactive)	> 68.1 µM (inactive)	> 68.1 µM (inactive)	> 68.1 µM (inactive)		> 68.1 µM (inactive)	39.9 µM (inactive)		> 68.1 µM (inactive)
COc1ccc(/C=C/CO)cc1OC	> 100 µM (inactive)	> 100 µM (inactive)		> 100 µM (inactive)	> 100 µM (inactive)				> 100 µM (inactive)
CC1(C)NC(=O)N(CCCCCCN2C(=O)NC(C)(C)C2=O)C1=O	> 100 µM (inactive)	> 100 µM (inactive)	> 100 µM (inactive)	> 100 µM (inactive)	> 100 µM (inactive)	> 100 µM (inactive)			> 100 µM (inactive)
C=C(C)C1CC2C(C)=C(OC(C)=O)C1n1c(=O)c3cc4ccccc4cc3c(=O)n12 (centres undefined)	> 93.5 µM (inactive)	65.8 µM (inactive)	53.1 µM (inactive)	95.9 µM (inactive)	54.2 µM (inactive)	> 100 µM (inactive)			74 µM (inactive)
O=c1/c(=C/c2ccc3c(c2)OCO3)sc2nnc(-c3ccco3)n12	> 100 µM (inactive)	> 100 µM (inactive)	> 100 µM (inactive)	> 100 µM (inactive)	> 100 µM (inactive)	> 100 µM (inactive)		> 100 µM (inactive)	> 100 µM (inactive)
Cc1nnc(N/N=C(/C(=O)C(C#N)c2ccc(Cl)cc2)C(C#N)c2ccc(Cl)cc2)n1N (centres undefined)	20.3 µM (inactive)	15.7 µM (inactive)	20.1 µM (inactive)	24.1 µM (inactive)	19 µM (inactive)	16.4 µM (inactive)	19.8 µM (inactive)	28.8 µM (inactive)	
CCCCCCCCCC1CC(=O)Oc2cccc(O)c21 (centres undefined)	31.3 µM (inactive)	15.7 µM (inactive)	27.9 µM (inactive)	42 µM (inactive)	4.03 µM (inactive)	51.4 µM (inactive)	0.617 µM (active)	21.6 µM (inactive)	31.3 µM (inactive)
Cc1n(-c2ccccc2)c2c([n+]1Cc1ccc([N+](=O)[O-])cc1)C(=O)c1ccccc1C2=O	3.23 µM (inactive)	0.386 µM (active)	5.43 µM (inactive)	2.88 µM (inactive)	1.92 µM (inactive)	7.19 µM (inactive)			1.16 µM (inactive)
NCCOCCOCC(=O)O	> 100 µM (inactive)	> 100 µM (inactive)		> 100 µM (inactive)	> 100 µM (inactive)				> 100 µM (inactive)
COc1cc(/C=C/C(=N\NC(=O)c2ccccc2)c2sc(Nc3ccc(Cl)c(Cl)c3)nc2C)ccc1O	33.4 µM (inactive)	23.8 µM (inactive)	28.7 µM (inactive)	29.3 µM (inactive)		24.1 µM (inactive)	20.6 µM (inactive)	32.9 µM (inactive)	28.2 µM (inactive)
